Experiment [1] deals with T1, human TRPV1 (Homo sapiens, UniProt Q8NER1).
T1 construct: expressed in transfected cells; host or cells: CHO cells
Briefly: Intracellular calcium influx in human TRPV1-expressing CHO cells. The format is cell-based. The following applies: final concentration 1 μM; relative to 1 μM capsaicin. The source says:
3. Measurement of Intracellular Calcium Influx by Present Compound in Human TRPV1-Expressing Cells
It is known that TRPV1 is an ion channel receptor and by the activation of TRPV1, intracellular calcium ion influx occurs. According to the method of Phelps et al. (Eur. J. Pharmacol., 513: 57-66, 2005), the action of the present compound of activating human TRPV1 was studied using CHO cells transfected with a gene encoding human TRPV1.
CHO cells were suspended in DMEM and seeded in a culture plate at 3.5×10^4 cells/well. A test compound or a control compound was dissolved in DMSO to prepare a DMSO solution, and times concentrated test compound-containing liquid and control compound-containing liquid each of which was composed of HBSS and contained the thus prepared DMSO solution were prepared.
To the CHO cells, a calcium indicator was added, and the resulting mixture was incubated at 37° C. for 30 minutes, and then further incubated at 22° C. for 30 minutes to achieve equilibration. Subsequently, one-tenth volume of the test compound-containing liquid, control compound-containing liquid (final concentration: 1 μM), or HBSS solution was added thereto, and a change in the fluorescence intensity of the intracellular calcium concentration indicator was measured.
(Calcium influx(%))=((fluorescence intensity in the presence of test compound)−(background fluorescence intensity)/(fluorescence intensity in the presence of control compound)−(background fluorescence intensity))×100
(Calcium assays in cells follow changes in intracellular calcium, usually with a dye or a luminescent sensor.)

Experiment [2] has as its target T2, vanilloid receptor (Rattus norvegicus, UniProt O35433).
T2 construct: Rat spinal cord was homogenized according to a common procedure; from tissue; host or cells: rat spinal cord membrane specimen
Nature of the experiment: Binding activity in rat spinal cord membrane specimen (3H-RTX competition).
Method: Binding Activity of the Present Compound in Rat Spinal Cord Membrane Specimen
According to the method of Szallasi et al., the binding activity of the present compound to a vanilloid receptor contained in a rat spinal cord membrane specimen was studied.
A test compound-containing liquid and a competitive compound-containing liquid containing a test compound and a competitive compound, respectively, and each composed of purified water containing 1% DMSO were prepared. As the competitive compound, tritium-labeled resiniferatoxin (^3H-RTX) was used, and the concentration of ^3H-RTX in the competitive compound-containing liquid was set to 0.2 nM.
Rat spinal cord was homogenized according to a common procedure, and the resulting homogenate was washed several times, followed by centrifugation. The resulting pellet was suspended in an incubation buffer (10 mM HEPES, pH 7.4, 0.25 mg/ml ESA, 0.75 mM CaCl2, 5 mM KCl, 2 mM MgCl2, 5.8 mM NaCl, 137 mM sucrose) at 10 mg/mL, whereby a membrane specimen was prepared.
After 5.25 μL of the test compound-containing liquid and 500 μL of the membrane specimen were mixed, 20 μL of the competitive compound-containing liquid was added thereto, and the entire resulting mixture was incubated at 37° C. for 60 minutes. The resulting membrane/^3H-RTX complex was collected by filtration, followed by washing. Then, the radioactivity was measured with a scintillation counter.
The above-mentioned assay was performed using the test compound-containing liquids containing a test compound at various concentrations and the results were analyzed as follows.
The inhibition ratio (%) of the test compound at each concentration was obtained from the following equation. (Inhibition ratio(%))={1−[(binding activity in the presence of test compound (cpm))−(radioactivity of non-specific binding (cpm))]/[(radioactivity of total binding (cpm))−(radioactivity of non-specific binding (cpm))]×100 […]

The nature of experiment [3]: Rat model of indomethacin-induced gastric mucosal injury. The format is in vivo. To be noted: indomethacin 30 mg/kg s.c., 6 hours. The procedure: 7. Effect in Rat Model of Gastrointestinal Dysfunction
A model of indomethacin-induced gastric mucosal injury is a model of gastrointestinal dysfunction widely used in the evaluation of drug efficacy of a therapeutic agent for ulcer. According to the method of Hoshino et al. (Folia Pharmacologica Japonica, Vol. 97, p. 287, 1991), the effect of the present compound in a rat model of indomethacin-induced gastric mucosal injury was studied.
A test compound-containing liquid was prepared immediately before use by suspending a test compound in a 1% aqueous methyl cellulose solution which is a vehicle. […]
To a rat fasted for 24 hours, the test compound-containing liquid, control compound-containing liquid, or vehicle (pathological control group) was orally administered, and immediately thereafter, indomethacin (Wako Pure Chemical Industries, Ltd.) was subcutaneously administered at a dose of 30 mg/kg. […] The length of the longest diameter of the site of a lesion dyed in blue including an ecchymosis was measured macroscopically using calipers.
A mean value of the sum of the longest diameters of the sites of lesions was obtained for each animal and was defined as an ulcer index. Further, a ratio of inhibition of gastric mucosal injury was calculated from the following equation. […]

Experiment [4] deals with T3, TRPV1 (Rattus norvegicus, UniProt O35433).
T3 construct: A dorsal root ganglion isolated from the spinal cord of a rat was sectioned and enzymatically treated; endogenous in cells; host or cells: primary cultured rat dorsal root ganglion neurons
Briefly: CGRP release in cultured rat dorsal root ganglion-derived neurons. The format is cell-based. The source says:
2. Effect of Present Compound on TRPV1 Agonist-Induced CGRP Release System Using Rat Dorsal Root Ganglion-Derived Neurons It is known that TRPV1 is expressed in dorsal root ganglion (DRG), and that by the activation of TRPV1, CGRP which is a neurotransmitter is released from a nerve terminal. According to the method of Ahluwalia et al., (European Journal of Neuroscience, Vol. 17, p. 2611, 2003), the CGRP releasing activity of the present compound in cultured neurons derived from rat DRG was studied. A test compound was weighed and dissolved in DMSO. The resulting solution was diluted with a medium, whereby a test compound-containing liquid was prepared. Each test compound-containing liquid was prepared such that 0.4% DMSO was contained therein as well. […] A dorsal root ganglion isolated from the spinal cord of a rat was sectioned and enzymatically treated with a collagenase/DNase I solution at 37° C. for 1 hour, and then with a trypsin/DNase I solution at 37° C. for 20 minutes. The released neurons were washed and collected, and then seeded in a poly-D-lysine/laminin-coated culture dish and cultured under conditions of 37° C. and 5% CO2 in a neuronal medium (NGF/NCS medium) supplemented with a nerve growth factor for 1 day. The medium was replaced with an NGF/NCS medium containing cytosine arabinoside, and the neurons were further cultured for 2 days. […]

T1 sequence (Q8NER1 whole entry): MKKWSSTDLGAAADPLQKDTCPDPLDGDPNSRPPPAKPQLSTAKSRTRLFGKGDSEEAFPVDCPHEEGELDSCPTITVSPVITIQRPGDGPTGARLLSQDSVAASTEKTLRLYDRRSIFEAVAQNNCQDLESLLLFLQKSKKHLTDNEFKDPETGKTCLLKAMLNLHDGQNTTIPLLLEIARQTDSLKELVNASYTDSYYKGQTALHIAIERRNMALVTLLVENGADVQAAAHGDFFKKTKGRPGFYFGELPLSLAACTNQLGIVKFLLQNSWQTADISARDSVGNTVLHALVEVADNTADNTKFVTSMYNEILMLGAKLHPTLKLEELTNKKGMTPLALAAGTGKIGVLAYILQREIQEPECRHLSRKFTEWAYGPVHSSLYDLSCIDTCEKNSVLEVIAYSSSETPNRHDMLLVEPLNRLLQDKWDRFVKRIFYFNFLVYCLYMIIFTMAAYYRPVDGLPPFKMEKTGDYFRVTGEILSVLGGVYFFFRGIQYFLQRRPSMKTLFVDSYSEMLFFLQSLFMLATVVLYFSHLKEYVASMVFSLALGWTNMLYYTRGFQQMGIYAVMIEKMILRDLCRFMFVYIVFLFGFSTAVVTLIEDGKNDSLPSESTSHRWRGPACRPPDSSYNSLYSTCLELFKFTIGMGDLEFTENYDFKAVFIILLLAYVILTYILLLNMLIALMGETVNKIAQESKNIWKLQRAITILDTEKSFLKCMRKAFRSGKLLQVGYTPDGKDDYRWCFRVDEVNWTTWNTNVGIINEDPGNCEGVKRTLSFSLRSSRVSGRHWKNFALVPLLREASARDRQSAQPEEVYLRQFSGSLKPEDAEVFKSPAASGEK
T2 sequence (O35433 whole entry): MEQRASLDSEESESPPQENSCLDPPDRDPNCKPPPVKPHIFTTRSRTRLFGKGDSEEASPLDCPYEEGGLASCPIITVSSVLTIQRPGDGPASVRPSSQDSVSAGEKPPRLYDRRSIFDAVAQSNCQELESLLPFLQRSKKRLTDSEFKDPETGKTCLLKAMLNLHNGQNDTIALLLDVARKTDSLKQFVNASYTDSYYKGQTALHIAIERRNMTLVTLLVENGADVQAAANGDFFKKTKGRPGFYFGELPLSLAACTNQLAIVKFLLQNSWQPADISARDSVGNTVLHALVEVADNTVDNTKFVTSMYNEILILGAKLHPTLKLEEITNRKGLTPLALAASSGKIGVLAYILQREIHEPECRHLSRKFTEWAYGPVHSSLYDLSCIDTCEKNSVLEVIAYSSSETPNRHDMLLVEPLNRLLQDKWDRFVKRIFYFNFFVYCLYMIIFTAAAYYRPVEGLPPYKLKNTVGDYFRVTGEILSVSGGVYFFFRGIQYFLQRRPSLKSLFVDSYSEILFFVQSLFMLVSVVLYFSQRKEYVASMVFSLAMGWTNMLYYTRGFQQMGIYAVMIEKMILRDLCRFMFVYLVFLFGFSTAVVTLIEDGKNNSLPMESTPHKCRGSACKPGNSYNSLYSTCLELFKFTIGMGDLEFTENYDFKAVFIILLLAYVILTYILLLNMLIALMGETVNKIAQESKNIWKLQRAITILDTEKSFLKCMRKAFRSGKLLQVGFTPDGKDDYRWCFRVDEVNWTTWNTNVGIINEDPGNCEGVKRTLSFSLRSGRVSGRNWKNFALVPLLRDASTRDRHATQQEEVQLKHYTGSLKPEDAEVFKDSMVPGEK
T3 sequence (O35433 whole entry): as above

For the molecule `CCCCCN(CCC12CC3CC(CC(C3)C1)C2)C(=O)NCC(C)Cc1ccncc1` (single isomer, unassigned; (+)) [Compound 6, (+)-1-[2-(1-adamantyl)ethyl]-3-[2-methyl-3-(4-pyridyl)propyl]-1-pentylurea], the “Calcium influx (%)” value in experiment [1] came to 76.6%.

The term IC50 denotes the midpoint of a concentration-inhibition curve. One may read the Ki as the equilibrium dissociation constant of an inhibitor or competing ligand from its target. As usually defined, the Hill coefficient is a measure of the steepness of the concentration-response curve. Regarding `CCCCCN(CCC12CC3CC(CC(C3)C1)C2)C(=O)NCCCc1ccncc1` [Compound 1, 1-[2-(1-adamantyl)ethyl]-1-pentyl-3-[3-(4-pyridyl)propyl]urea], the IC50 in experiment [2] (0.2 nM 3H-RTX liquid, 37° C. 60 minutes, mean±SEM of assays performed in triplicate, read-out: IC50 value to the vanilloid receptor in the rat spinal cord neuronal membrane specimen) was 191 ± 28 nM. In addition, the Ki in experiment [2] (from IC50, dissociation constant 0.046 nM, mean±SEM, read-out: Ki value to the vanilloid receptor in the rat spinal cord neuronal membrane specimen) came to 35.8 ± 5.2 nM. In experiment [2] (nonlinear regression of inhibition curve), this molecule came in with a Hill coefficient of 1.83±0.449. In addition, the “inhibition ratio (%) of gastric mucosal injury” value in experiment [3] (1 mg/kg oral) came out at 67.41%. Further, the “CGRP release in competitive inhibition assay with capsazepine” value in experiment [4] (10 μM (final concentration) capsazepine, FIG. 3) is reported as “antagonized by capsazepine”. Moreover, in experiment [4] (absence of capsazepine, 10 minutes culture, FIG. 2), the CGRP release result is on record as “released CGRP in a dose-dependent manner”.

For the molecule `O=C(NCCCc1ccncc1)N(CCC(F)(F)F)CCC12CC3CC(CC(C3)C1)C2` [Compound 2, 1-[2-(1-adamantyl)ethyl]-3-[3-(4-pyridyl)propyl]-1-(3,3,3-trifluoropropyl)urea], the “Calcium influx (%)” value in experiment [1] stood at 74.1%.

`CCCN(CCCC12CC3CC(CC(C3)C1)C2)C(=O)NCCCc1ccncc1` [Compound 3, 1-[3-(1-adamantyl)propyl]-1-propyl-3-[3-(4-pyridyl)propyl]urea]: in experiment [1], the “Calcium influx (%)” value was 59.8%.

Regarding `CCCCCN(CCC12CC3CC(CC(C3)C1)C2)C(=O)NC(C)CCc1ccncc1` (stereo not shown) [Compound 4, 1-[2-(1-adamantyl)ethyl]-3-[1-methyl-3-(4-pyridyl)propyl]-1-pentylurea], the “Calcium influx (%)” value in experiment [1] was 43.9%.

As for `CCCCCN(CCC12CC3CC(CC(C3)C1)C2)C(=O)NCC(C)Cc1ccncc1` (stereo not shown) [Compound 5, 1-[2-(1-adamantyl)ethyl]-3-[2-methyl-3-(4-pyridyl)propyl]-1-pentylurea], the “Calcium influx (%)” value in experiment [1] is reported as 64.3%.

On to `CCCCCN(CCC12CC3CC(CC(C3)C1)C2)C(=O)NC/C=C/c1ccncc1` [Compound 7, (E)-1-[2-(1-adamantyl)ethyl]-1-pentyl-3-[3-(4-pyridyl)-2-propenyl]urea], for which the “Calcium influx (%)” value in experiment [1] stood at 36.1%.

For the molecule `COc1ccc2[nH]c([S+]([O-])Cc3ncc(C)c(OC)c3C)nc2c1` (stereo not shown) [Omeprazole, omeprazole, reference compound], the “inhibition ratio (%) of gastric mucosal injury” value in experiment [3] (10 mg/kg oral) amounted to 69.22%.
